Data taken from US8367873B2, “Phenyl-substituted bicyclooctane-1,3-dione derivatives” (Bayer Cropscience AG, priority 2008, dated 2013).

Columns and labels:
Assay type in all cases: in vivo
Conditions in all cases: post-emergence method, 80 g/ha
[1] = system: monocotylidonous and dicotylidonous weed and crop plants; experiment: Herbicidal post-emergence action (other test plants)
Method: (§1) Seeds of monocotylidonous and dicotylidonous weed and crop plants are placed in sandy loam in wood fibre pots, covered with soil and cultivated in a greenhouse under good growth conditions. Two to three weeks after sowing, the test plants are treated at the one-leaf stage. The test compounds, formulated as wettable powders (WP), are then with a water application rate of 600 l/ha (converted), with 0.2% of wetting agent added, sprayed onto the green parts of the plants in different amounts. After the test plants have been kept in the greenhouse under optimum growth conditions for about three weeks, the effect of the preparations is assessed visually in comparison to untreated controls (herbicidal effect in percent: 100% effect=the plants have died, 0% effect=like control plants).

Echinocloa crus-galli = experiment: Herbicidal post-emergence action
Method: as §1

Alopecurus myosuroides = experiment: Herbicidal post-emergence action
Method: as §1

Lolium multiflorum = experiment: Herbicidal post-emergence action
Method: as §1

Setaria viridis = experiment: Herbicidal post-emergence action
Method: as §1

SMILES | herbicidal effect against AVEFA (Avena fatua) [1] | herbicidal effect against ECHCG (Echinochloa crus-galli) (Echinocloa crus-galli) | herbicidal effect against ALOMY (Alopecurus myosuroides) (Alopecurus myosuroides) | herbicidal effect against LOLMU (Lolium multiflorum) (Lolium multiflorum) | herbicidal effect against SETVI (Setaria viridis) (Setaria viridis)
CCc1cc(C)cc(C)c1C1=C(O)C2CC(=O)CC2C1=O (stereo not shown) [I-a-56] | 0% | 100% | 0% | 0% | 100%
CCc1cc(C)cc(CC)c1C1=C(OC(=O)COC)C2CC3(CC2C1=O)SCCCS3 (stereo not shown) [I-b-10] | 20% | 90% | 90% | 70% | 70%
Cc1cc(C)c(C2=C([O-])C3CC4(CC3C2=O)OCCCCO4)c(C)c1.[Na+] (stereo not shown) [I-f-10] | 80% | 90% | 100% | 100% | 90%
CCC(C)(C)C(=O)OC1=C(c2c(C)cc(C)cc2C)C(=O)C2CC(=O)CC12 (stereo not shown) [I-b-55] | 0% | 90% | 0% | 0% | 90%
C#CCON=C1CC2C(=O)C(c3c(C)cc(C)cc3C)=C(OC(=O)C(C)C)C2C1 (stereo not shown) [I-b-58] | 0% | 80% | 0% | 60% | 20%
CCC(=O)OC1=C(c2c(CC)cc(C)cc2CC)C(=O)C2CC3(CC12)SCCCS3 (stereo not shown) [I-b-9] | 0% | 90% | 90% | 40% | 40%
CCOC(=O)OC1=C(c2c(C)cc(C)cc2C)C(=O)C2CC3(CC12)OCCCO3 (racemic) [I-c-47] | 90% | 100% | 100% | 100% | 60%
CCOC(=O)OC1=C(c2c(CC)cc(C)cc2CC)C(=O)[C@@H]2CC3(C[C@H]12)SCCS3 (relative stereo) [I-c-15] | 60% | 90% | 90% | 90% | 90%
CCOC(=O)OC1=C(c2c(CC)cc(C)cc2CC)C(=O)C2CC(=NOC(C)(C)C)CC12 (stereo not shown) [I-c-38] | 0% | 80% | 70% | 90% | 30%
COCC(=O)OC1=C(c2c(C)cc(C)cc2C)C(=O)C2CC(=O)CC12 (stereo not shown) [I-b-53] | 0% | 100% | 20% | 0% | 90%
Cc1cc(C)c(C2=C(OC(=O)C(C)(C)C)C3CC(=O)CC3C2=O)c(C)c1 (stereo not shown) [I-b-60] | 0% | 100% | 0% | 0% | 80%
